Settings: Gas, Oscillating disk viscometry

CCN(CC)CC [triethylamine]
Settings | viscosity [mPa·s]
296.98 K, Amount density=4.2 mol/m3 | 0.006418
297.59 K, Amount density=6.31 mol/m3 | 0.006412
297.87 K, Amount density=8.75 mol/m3 | 0.006427
297.97 K, Amount density=4.2 mol/m3 | 0.006439
297.98 K, Amount density=4.99 mol/m3 | 0.00644
298.33 K, Amount density=4.99 mol/m3 | 0.006437
299.24 K, Amount density=7.52 mol/m3 | 0.006446
299.36 K, Amount density=6.31 mol/m3 | 0.006449
299.67 K, Amount density=2.2 mol/m3 | 0.00649
299.85 K, Amount density=2.2 mol/m3 | 0.006485
300.02 K, Amount density=3.13 mol/m3 | 0.006488
300.11 K, Amount density=8.75 mol/m3 | 0.00646
303.12 K, Amount density=3.13 mol/m3 | 0.006548
310.02 K, Amount density=4.2 mol/m3 | 0.006668
310.29 K, Amount density=6.31 mol/m3 | 0.006654
311.78 K, Amount density=8.75 mol/m3 | 0.006667
313.96 K, Amount density=2.2 mol/m3 | 0.006764
314.61 K, Amount density=4.99 mol/m3 | 0.00675
316.33 K, Amount density=3.13 mol/m3 | 0.006815
324.05 K, Amount density=8.75 mol/m3 | 0.006913
324.26 K, Amount density=3.13 mol/m3 | 0.006981
324.9 K, Amount density=6.31 mol/m3 | 0.006948
324.95 K, Amount density=4.2 mol/m3 | 0.006971
325.84 K, Amount density=4.99 mol/m3 | 0.00698
326.04 K, Amount density=7.52 mol/m3 | 0.006979
326.63 K, Amount density=2.2 mol/m3 | 0.007024
337.84 K, Amount density=6.31 mol/m3 | 0.007205
338.12 K, Amount density=7.52 mol/m3 | 0.007218
338.25 K, Amount density=4.99 mol/m3 | 0.007233
338.31 K, Amount density=3.13 mol/m3 | 0.007259
338.63 K, Amount density=4.2 mol/m3 | 0.007245
338.92 K, Amount density=8.75 mol/m3 | 0.007217
339.05 K, Amount density=2.2 mol/m3 | 0.007275
352.32 K, Amount density=7.52 mol/m3 | 0.007513
352.34 K, Amount density=8.75 mol/m3 | 0.007487
352.41 K, Amount density=6.31 mol/m3 | 0.007492
352.46 K, Amount density=4.99 mol/m3 | 0.007529
352.5 K, Amount density=2.2 mol/m3 | 0.007551
352.91 K, Amount density=3.13 mol/m3 | 0.007557
353.3 K, Amount density=4.2 mol/m3 | 0.007551
365.86 K, Amount density=4.2 mol/m3 | 0.007803
366.42 K, Amount density=8.75 mol/m3 | 0.007782
366.49 K, Amount density=3.13 mol/m3 | 0.007839
366.6 K, Amount density=2.2 mol/m3 | 0.007842
366.72 K, Amount density=7.52 mol/m3 | 0.007801
366.77 K, Amount density=6.31 mol/m3 | 0.007784
367.25 K, Amount density=4.99 mol/m3 | 0.007831
380.54 K, Amount density=4.99 mol/m3 | 0.008109
380.67 K, Amount density=3.13 mol/m3 | 0.008129
381.06 K, Amount density=8.75 mol/m3 | 0.008076
381.14 K, Amount density=2.2 mol/m3 | 0.008137
381.83 K, Amount density=6.31 mol/m3 | 0.008106
385.41 K, Amount density=4.2 mol/m3 | 0.008217
385.75 K, Amount density=7.52 mol/m3 | 0.008206
394.25 K, Amount density=4.2 mol/m3 | 0.008388
394.49 K, Amount density=6.31 mol/m3 | 0.00837
394.51 K, Amount density=4.99 mol/m3 | 0.008386
394.56 K, Amount density=2.2 mol/m3 | 0.008413
394.86 K, Amount density=7.52 mol/m3 | 0.008384
394.95 K, Amount density=3.13 mol/m3 | 0.008423
395.11 K, Amount density=8.75 mol/m3 | 0.008369
408.35 K, Amount density=8.75 mol/m3 | 0.00864
408.97 K, Amount density=6.31 mol/m3 | 0.008662
409.2 K, Amount density=2.2 mol/m3 | 0.008718
409.32 K, Amount density=4.99 mol/m3 | 0.008707
409.67 K, Amount density=7.52 mol/m3 | 0.00869
409.73 K, Amount density=4.2 mol/m3 | 0.008711
412.99 K, Amount density=3.13 mol/m3 | 0.008804
422.67 K, Amount density=8.75 mol/m3 | 0.008939
422.79 K, Amount density=2.2 mol/m3 | 0.008996
423.03 K, Amount density=7.52 mol/m3 | 0.008963
423.25 K, Amount density=4.99 mol/m3 | 0.008991
423.41 K, Amount density=3.13 mol/m3 | 0.009012
423.92 K, Amount density=6.31 mol/m3 | 0.008966
423.93 K, Amount density=4.2 mol/m3 | 0.008988
436.97 K, Amount density=4.2 mol/m3 | 0.009275
437.11 K, Amount density=6.31 mol/m3 | 0.009249
437.42 K, Amount density=2.2 mol/m3 | 0.009296
437.51 K, Amount density=3.13 mol/m3 | 0.009315
437.62 K, Amount density=4.99 mol/m3 | 0.009286
437.76 K, Amount density=8.75 mol/m3 | 0.009255
437.87 K, Amount density=7.52 mol/m3 | 0.009269
451.28 K, Amount density=4.99 mol/m3 | 0.009572
451.45 K, Amount density=8.75 mol/m3 | 0.009534
451.66 K, Amount density=6.31 mol/m3 | 0.009554
451.72 K, Amount density=2.2 mol/m3 | 0.009594
451.74 K, Amount density=3.13 mol/m3 | 0.009599
451.76 K, Amount density=4.2 mol/m3 | 0.009586
451.93 K, Amount density=7.52 mol/m3 | 0.009558
465.92 K, Amount density=6.31 mol/m3 | 0.009846
466.45 K, Amount density=4.99 mol/m3 | 0.009879
466.58 K, Amount density=2.2 mol/m3 | 0.009907
466.63 K, Amount density=8.75 mol/m3 | 0.009851
466.71 K, Amount density=4.2 mol/m3 | 0.009893
469.98 K, Amount density=3.13 mol/m3 | 0.009985
471.39 K, Amount density=7.52 mol/m3 | 0.009972
480.12 K, Amount density=8.75 mol/m3 | 0.01013
480.36 K, Amount density=2.2 mol/m3 | 0.01019
480.43 K, Amount density=4.99 mol/m3 | 0.01017
480.7 K, Amount density=7.52 mol/m3 | 0.01015
480.86 K, Amount density=3.13 mol/m3 | 0.0102
481.09 K, Amount density=6.31 mol/m3 | 0.01015
481.32 K, Amount density=4.2 mol/m3 | 0.01019
495.17 K, Amount density=6.31 mol/m3 | 0.01045
495.29 K, Amount density=4.99 mol/m3 | 0.01047
495.31 K, Amount density=4.2 mol/m3 | 0.01049
495.84 K, Amount density=7.52 mol/m3 | 0.01046
496.21 K, Amount density=8.75 mol/m3 | 0.01046
498.38 K, Amount density=3.13 mol/m3 | 0.01057
498.45 K, Amount density=2.2 mol/m3 | 0.01056

— the NIST ThermoML archive (doi:10.1016/j.fluid.2010.02.037)
